The assay can be described thus: Inhibition of Hedgehog signaling pathway in mouse ASZ001 cells assessed as decrease in Gli1 mRNA expression after 48 hrs by qRT-PCR analysis. The class given is cell-based. Particulars: ASZ001, 48 h. A general note: In qPCR the cycle at which signal appears reflects the starting amount.
For the molecule `CC[C@@H](C)n1ncn(-c2ccc(N3CCN(c4ccc(OC[C@@H]5CO[C@H](c6ccc(Cl)cc6Cl)O5)cc4)CC3)cc2)c1=O`, the IC50 was determined as 300 nM. Under `CC[C@@H](C)n1ncn(-c2ccc(N3CCN(c4ccc(OC[C@@H]5CO[C@@](Cn6ccnc6)(c6ccc(Cl)cc6Cl)O5)cc4)CC3)cc2)c1=O` stands 110 nM; under `CC[C@@H](C)n1ncn(-c2ccc(N3CCN(c4ccc(OC[C@@H]5CO[C@@](CCl)(c6ccc(Cl)cc6Cl)O5)cc4)CC3)cc2)c1=O`, 25 nM; under `CC[C@@H](C)n1ncn(-c2ccc(N3CCN(c4ccc(OC[C@@H]5CO[C@@](c6ccc(Cl)cc6Cl)(C(F)(F)F)O5)cc4)CC3)cc2)c1=O`, 69 nM. Consider `CC[C@@H](C)n1ncn(-c2ccc(N3CCN(c4ccc(OC[C@@H]5CO[C@@](CN6C(=O)c7ccccc7C6=O)(c6ccc(Cl)cc6Cl)O5)cc4)CC3)cc2)c1=O`, for which the IC50 was 820 nM. In the case of `CC[C@@H](C)n1ncn(-c2ccc(N3CCN(c4ccc(OC[C@@H]5CO[C@](CCl)(c6ccc(Cl)cc6Cl)O5)cc4)CC3)cc2)c1=O` it was 20 nM; in that of `CC[C@@H](C)n1ncn(-c2ccc(N3CCN(c4ccc(OC[C@@H]5CO[C@](c6ccc(Cl)cc6Cl)(C(F)(F)F)O5)cc4)CC3)cc2)c1=O`, 67 nM; in that of `CC[C@@H](C)n1ncn(-c2ccc(N3CCN(c4ccc(OC[C@@H]5CO[C@](CN6C(=O)c7ccccc7C6=O)(c6ccc(Cl)cc6Cl)O5)cc4)CC3)cc2)c1=O`, 1070 nM. In the case of `CC[C@@H](C)n1ncn(-c2ccc(N3CCN(c4ccc(OC[C@@H]5CO[C@](Cn6ccnc6)(c6ccc(Cl)cc6Cl)O5)cc4)CC3)cc2)c1=O` it was 110 nM.

Consider `CC[C@@H](C)n1ncn(-c2ccc(N3CCN(c4ccc(OC[C@@H]5CO[C@@H](c6ccc(Cl)cc6Cl)O5)cc4)CC3)cc2)c1=O`, for which the IC50 was found to be 310 nM. In the case of `CC[C@@H](C)n1ncn(-c2ccc(N3CCN(c4ccc(OC[C@@H]5CO[C@@](C(N)=O)(c6ccc(Cl)cc6Cl)O5)cc4)CC3)cc2)c1=O` it was 940 nM; in that of `CC[C@@H](C)n1ncn(-c2ccc(N3CCN(c4ccc(OC[C@@H]5CO[C@@](CN)(c6ccc(Cl)cc6Cl)O5)cc4)CC3)cc2)c1=O`, 550 nM; in that of `CCC(C)n1ncn(-c2ccc(N3CCN(c4ccc(OCC5COC(Cn6cncn6)(c6ccc(Cl)cc6Cl)O5)cc4)CC3)cc2)c1=O` (stereo not drawn) [ITRACONAZOLE], 140 nM.

For orientation: IC50 means the point on the concentration scale where inhibition reaches its midpoint.

Source of the values: ChEMBL document CHEMBL4602623, “Inhibition of hedgehog signaling by stereochemically defined des-triazole itraconazole analogues” (Bioorg Med Chem Lett, 2020).
